{
  "source": "patent US12180509B2",
  "about": "“Methods for reprograming non-pluripotent cells into pluripotent stem cells” (Beihao Stem Cell and Regenerative Medicine Research …, priority 2015, dated 2024)",
  "assay_type_in_all_cases": "cell-based, mouse",
  "key": {"[1]": {"tested_on": "MEFs", "experiment": "CiPSC induction from MEFs with small-molecule combinations (no XEN priming)", "details": "for replacement of DZNep in CiPSC generation: SAH hydrolase inhibitor in combination with VC6TF", "description": "The initial cells (MEFs, MNFs, MAFs or ADSCs) were seeded at a density of 50,000 cells per well of a 6-well plate or 300,000 cells per 100 mm dish. On the next day (day 0), the original medium was replaced with chemical reprogramming medium containing the small-molecule combinations. The small-molecule combinations-containing medium was changed every 4 days. On day 12, these cells were washed in PBS and digested with 0.25% Trypsin-EDTA (Invitrogen) at 37° C. for 3-5 min. After neutralization, the cell clumps were dissociated into single cells by thorough pipetting. The cells were harvested (300,000-1,000,000 cells per well of a 6-well plate) and replated at a density of 300,000-500,000 cells per well of a 6-well plate in the chemical reprogramming medium containing the small-molecule combinations. DZNep was added to the cell cultures on day 16 or day 20. On day 28-36, the small-molecule combinations including DZNep were removed. Meanwhile, the chemical reprogramming medium was replaced with 2i-medium. After another 8-12 days, 2i-competent, ESC-like and GFP-positive colonies were counted as primary CiPSC colonies. For CiPSC induction from wild-type cells without OG reporter, 2i-competent and ESC-like colonies were counted as primary CiPSC colonies. These CiPSC colonies were picked up for expansion and characterization. Alternatively, CiPSCs could be induced without replating on day 12."}, "[2]": {"tested_on": "MEFs from OG mice", "experiment": "Screen for small molecules that facilitate late reprogramming (DOX-inducible Oct4 plus VC6T)", "details": "VC6T plus DOX-induced Oct4 for the first 4-8 days", "experimental": "To identify small molecules that facilitate late reprogramming, a doxycycline (DOX)-inducible Oct4 expression screening system was used (Li, et al., Cell Res. 21:196-204 (2011)).\nMEFs from OG mice were plated as described above and infected with Fu-tet-hOct4 and FUdeltaGW-rtTA lentiviruses. The induction protocol was carried out as described above.\nAfter infection, the culture medium was replaced with LIF-free ESC culture medium containing VC6T (VPA, CHIR99021, 616452, Tranylcypromine) plus DOX (1 μg/ml). Alternatively, MEFs harboring DOX-inducible Oct4 from Tet-On POUSF1 mouse strain B6; 129-Gt (ROSA)26Sor^tm1(TrtTA*M2)Jae Colla1^tm2(tetO-Pou5f1)Jae/J were used in this screen (Li, et al., Cell Res., 21:196-204 (2011)). These two DOX-inducible systems were only used in this screen, but not in complete chemical reprogramming. Individual chemicals from small-molecule libraries were added to each well. Small molecules were added at different culture time points. 5-aza-C(5-Azacytidine) and DZNep were added from day 8. The medium and chemicals were changed every 4 days; DOX was added only for the first 4-8 days. Chemical treatments were continued for 16-24 days or until GFP-positive colonies appeared. Primary hits were selected for further confirmation and optimization. CiPSC colonies were counted on day 44. […]"}, "[3]": {"tested_on": "MEFs from OG mice", "experiment": "Screen for chemical substitutes of Oct4 in OG-MEFs infected with Sox2, Klf4 and c-Myc", "details": "OG-MEFs with viral expression of Sox2, Klf4 and c-Myc, no Oct4", "experimental": "To identify chemical substitutes of Oct4, MEFs from OG mice were plated at a density of 20,000 cells per well of a 12-well plate and infected with lentiviruses encoding Sox2, Klf4 and c-Myc. After infection, the medium was replaced with LIF-free ESC culture medium. Individual chemicals from small-molecule libraries were added to each well. The medium and chemicals were changed every 4 days. Chemical treatments were continued for 14-20 days or until GFP-positive colonies appeared. Primary hits were selected for further confirmation and optimization.\nSmall molecules that enable reprogramming in the absence of Oct4 were searched using Oct4 promoter-driven green fluorescent protein (GFP) expression (OG) mouse embryonic fibroblasts (MEFs), with viral expression of Sox2, Klf4, and c-Myc."}, "[4]": {"tested_on": "pluripotency-related genes and XEN marker genes", "experiment": "Real-time PCR of pluripotency, XEN and MET genes during chemical reprogramming", "details": "for endogenous expression of Sall4 and Sox2 on withdrawal of the chemical: chemicals withdrawn from VC6TF, after 12 days; for expression of XEN marker genes (Sall4, Gata4, Sox17): stage 1, fibroblasts to XEN-like cells", "experimental": "Total RNA from an entire well of cultured cells was isolated using the RNeasy Plus MiniKit (QIAGEN). For a single colony, RNA was isolated using the RNeasy Micro Kit (QIAGEN). RNA was converted to cDNA using TransScript First-Strand cDNA Synthesis SuperMix (TransGen Biotech). PCR was carried out using Power SYBRR Green PCR Master Mix (Applied Biosystems) and performed on an ABI Prism 7300 Sequence Detection System. The data were analyzed using the delta-delta Ct method."}},
  "note": "Counter-ions that a name gives are not always drawn.",
  "data": [
    {"smiles": "C/C(=C\\c1ccc(C(=O)O)cc1)c1ccc2c(c1)C(C)(C)CCC2(C)C", "note": "[TTNPB, 4-[(E)-2-(5,6,7,8-Tetrahydro-5,5,8,8-tetramethyl-2-naphthalenyl)-1-propenyl]benzoic acid]", "values": [
      {"measurement": "chemical reprogramming efficiency enhanced, factor", "setting": "[1]; TTNPB as booster added to the chemical cocktail (C6FZ or VC6TFZ) in MEFs", "value": "≤ 40"},
      {"measurement": "reprogramming frequency", "setting": "[1]; with TTNPB, comparable to transcription factor-induced reprogramming", "value": "up to 0.2%"}
    ]},
    {"smiles": "COc1ccc(C2CNC(=O)C2)cc1OC1CCCC1", "note": "(stereo not drawn) [Rolipram]", "values": [
      {"measurement": "small molecule hit facilitating late reprogramming", "setting": "[2]", "value": "identified in this screen"}
    ]},
    {"smiles": "Nc1ncnc2c1ncn2[C@@H]1C=C(CO)[C@@H](O)[C@H]1O", "note": "[NEPA, (−)-Neplanocin A]", "values": [
      {"measurement": "replacement of DZNep in CiPSC generation", "setting": "[1]", "value": "useful in replacing DZNep in reprogramming"}
    ]},
    {"smiles": "CCCC(=O)[O-].[Na+]", "note": "[sodium butyrate, Sodium butyrate]", "values": [
      {"measurement": "small molecule hit facilitating late reprogramming", "setting": "[2]", "value": "identified in this screen"}
    ]},
    {"smiles": "Cc1[nH]c2ccc(O)cc2c1CCN", "note": "[2-Me-5HT, 2-Methyl-5-hydroxytryptamine hydrochloride]", "values": [
      {"measurement": "chemical substitute for Oct4 (iPSC induction)", "setting": "[3]", "value": "identified as chemical “substitutes” for Oct4"}
    ]},
    {"smiles": "O=C(O)[C@@H](Cc1c[nH]c2ccccc12)N1C(=O)C2=CCCC=C2C1=O", "note": "[RG108]", "values": [
      {"measurement": "small molecule hit facilitating late reprogramming", "setting": "[2]", "value": "identified in this screen"}
    ]},
    {"smiles": "Nc1nccc2c1ncn2[C@@H]1O[C@H](CO)[C@@H](O)[C@H]1O", "note": "[DZA, 3-Deazaadenosine]", "values": [
      {"measurement": "replacement of DZNep in CiPSC generation", "setting": "[1]", "value": "useful in replacing DZNep in reprogramming"}
    ]},
    {"smiles": "Cc1cnc(-c2cnc(NCCNc3ccc(C#N)cn3)nc2-c2ccc(Cl)cc2Cl)[nH]1", "note": "[CHIR99021, 6-[[2-[[4-(2,4-Dichlorophenyl)-5-(5-methyl-1H-imidazol-2-yl)-2-pyrimidinyl]amino]ethyl]amino]-3-pyridinecarbonitrile]", "values": [
      {"measurement": "endogenous expression of Sall4 and Sox2 on withdrawal of the chemical", "setting": "[4]", "value": "essential in activating the endogenous expression of Sall4 and Sox2"},
      {"measurement": "increase in the expression of Gata4, Sox17 and EpCAM", "setting": "[4]; increased concentration of CHIR99021 (20 μM versus 10 μM) in VC6TF, 12 days", "value": "up to 10 fold"}
    ]},
    {"smiles": "C[C@H]1O[C@@H](n2cnc3c(N)ncnc32)C[C@@H]1O", "note": "[2′5′ddAdo, 2′,5′-Dideoxyadenosine]", "values": [
      {"measurement": "number of colonies formed by VC6TFZ", "setting": "[1]; inhibition of adenylate cyclase during VC6TFZ treatment", "value": "decreased the number of colonies"}
    ]},
    {"smiles": "CCCCC[C@H](O)/C=C/[C@H]1[C@H](O)CC(=O)[C@@H]1C/C=C\\CCCC(=O)O", "note": "[Prostaglandin E2]", "values": [
      {"measurement": "small molecule hit facilitating late reprogramming", "setting": "[2]", "value": "identified in this screen"}
    ]},
    {"smiles": "NC(=O)c1ccc(-c2nc(-c3ccc4c(c3)OCCO4)c(-c3ccccn3)[nH]2)cc1", "note": "[D4476, 4-[4-(2,3-Dihydro-1,4-benzodioxin-6-yl)-5-(2-pyridinyl)-1H-imidazol-2-yl]benzamide]", "values": [
      {"measurement": "chemical substitute for Oct4 (iPSC induction)", "setting": "[3]", "value": "identified as chemical “substitutes” for Oct4"}
    ]},
    {"smiles": "Nc1ncn([C@@H]2O[C@H](CO)[C@@H](O)[C@H]2O)c(=O)n1", "note": "[5-Azacytidine]", "values": [
      {"measurement": "small molecule hit facilitating late reprogramming", "setting": "[2]", "value": "identified in this screen"}
    ]},
    {"smiles": "Cc1cccc(-c2n[nH]cc2-c2ccc3ncccc3n2)n1", "note": "[compound 616452, 2-(3-(6-Methylpyridin-2-yl)-1H-pyrazol-4-yl)-1,5-naphthyridine]", "values": [
      {"measurement": "endogenous expression of Sall4 and Sox2 on withdrawal of the chemical", "setting": "[4]", "value": "essential in activating the endogenous expression of Sall4 and Sox2"}
    ]},
    {"smiles": "Nc1ncnc2c1ncn2C(C=O)OC(C=O)CO", "note": "(stereo not drawn) [Adox, Adenosine, periodate oxidized]", "values": [
      {"measurement": "replacement of DZNep in CiPSC generation", "setting": "[1]", "value": "useful in replacing DZNep in reprogramming"}
    ]},
    {"smiles": "CC1(C)CCC(C)(C)c2cc(C(=O)Nc3ccc(C(=O)O)cc3)ccc21", "note": "[AM580, 4-[(5,6,7,8-Tetrahydro-5,5,8,8-tetramethyl-2-naphthalenyl)carboxamido]benzoic acid]", "values": [
      {"measurement": "expression of XEN marker genes (Sall4, Gata4, Sox17)", "setting": "[4]", "value": "promote the expression of XEN marker genes"}
    ]},
    {"smiles": "CC(C)N(CCCNC(=O)Nc1ccc(C(C)(C)C)cc1)C[C@H]1O[C@@H](n2ccc3c(N)ncnc32)[C@H](O)[C@@H]1O", "note": "[EPZ004777, 1-(3-((((2R,3S,4R,5R)-5-(4-amino-7H-pyrrolo[2,3-d]pyrimidin-7-yl)-3,4-dihydroxytetrahydrofuran-2-yl)methyl)(isopropyl)amino)propyl)-3-(4-(tert-butyl)phenyl)urea]", "values": [
      {"measurement": "expression of XEN marker genes (Sall4, Gata4, Sox17)", "setting": "[4]", "value": "promote the expression of XEN marker genes"}
    ]}
  ]
}
